# Reference: US20180110754A1, “CENICRIVIROC FOR THE TREATMENT OF FIBROSIS” (Tobira Therapeutics, Inc., priority 2015, published 2018)
# Legend:
# MCP-1 = assay: Study 201: MCP-1, hs-CRP and IL-6 levels; assay type: in vivo, human
# Procedure: Participants were required to be antiretroviral treatment-experienced, CCR5 antagonist-naive, with HIV-1 RNA levels of at least 5000 copies/mL and CD4+ cell counts of at least 250 cells/mm^3 was performed.
# Exploratory assessment of changes in MCP-1 (a ligand of CCR2, which is a chemokine co-receptor expressed on pro-inflammatory monocytes, also known as CCL2), hs-CRP, and IL-6 were performed and significant dose-dependent increases in MCP-1 were observed (Table 23).
# [1] = Mouse thioglycollate-induced peritonitis model: circulating blood cell counts; conditions: in vivo
# Procedure: (§1) The lavage fluid was placed on wet ice pending processing for total and differential cell counts using the Advia analyzer. Following the lavage collection, a blood sample (0.7 mL) was collected from each mouse by intracardiac puncture or from the vena cava (collection time was recorded). 0.5 mL of blood was placed in an EDTA tube, transferred to clinical pathology and analyzed for differential cell counts using the Advia analyzer. 0.2 mL of blood was placed in a K2EDTA tube and processed to plasma. The plasma was collected by centrifugation (3000 rpm for 10 minutes at 4° C.) and placed on dry ice. The samples were analyzed to determine CVC plasma levels. After blood collection, the animals were then exsanguinated by sectioning of the abdominal aorta.
# (§2) Statistical Analysis: One-way ANOVA with post-hoc Dunnett's statistical analysis was performed on differential cell counts obtained from lavage and blood samples. The analysis was performed in comparison to Group 2.
# [2] = test system: thioglycollate-induced peritonitis (monocyte/macrophage and leukocyte recruitment); assay: Mouse thioglycollate-induced peritonitis model: peritoneal lavage cell counts, body weight; assay type: in vivo
# Procedure: Summary: The mouse thioglycollate induced peritonitis model is a commonly used preclinical model to assess the recruitment of […] cells and to assess the activation of macrophages.
# Dexamethasone was used as a positive control in this experiment as it is a corticosteroid known to reduce inflammation in a variety of animal models. Murine inflammation models indicate that the effective dose range for dexamethasone, when administered orally, is 0.3 to 3 mg/kg QD. On this basis, an intermediate dose of 1 mg/kg was chosen for this particular study.
# The lavage was repeated with a second injection of 2.5 mL via the initial puncture site and the samples were pooled for each animal.
# as §1, with “The samples were analyzed to determine CVC plasma levels.” left out
# as §2
# CCR2 = target: T1, CCR2 (Homo sapiens, UniProt P41597); assay: MCP-1-induced CCR2 internalization / CCR2 receptor occupancy on monocytes (flow cytometry); assay type: cell-based
# T1 construct: endogenous in cells; host or cells: monocytes within PBMCs from HIV+ and HIV- subjects
# T1 sequence (P41597 1-360 isoform P41597-2): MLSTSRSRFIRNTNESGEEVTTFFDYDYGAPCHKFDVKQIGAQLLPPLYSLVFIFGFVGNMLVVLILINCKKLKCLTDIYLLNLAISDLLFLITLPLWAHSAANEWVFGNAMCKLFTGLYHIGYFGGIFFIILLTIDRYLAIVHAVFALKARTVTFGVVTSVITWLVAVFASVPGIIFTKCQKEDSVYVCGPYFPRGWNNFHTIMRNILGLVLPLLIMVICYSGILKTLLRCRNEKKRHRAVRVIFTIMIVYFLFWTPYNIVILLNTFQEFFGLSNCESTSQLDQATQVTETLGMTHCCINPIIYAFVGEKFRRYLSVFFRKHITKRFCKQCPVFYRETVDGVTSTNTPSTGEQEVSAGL
# Procedure: The capacity of each drug to inhibit CCR5 or CCR2 internalization was evaluated. Cell-surface expression of CCR5 and CCR2 was assessed by flow cytometry, and fluorescence values were converted into molecules of equivalent soluble fluorescence (MESF).
# [3] = Mouse thioglycollate-induced peritonitis model: CVC plasma levels (LC/MS/MS); assay type: in vivo
# Procedure: as §1
# Animals received the test article by oral gavage from Days 1 to 5. The twice daily (BID) dosing in Groups 2 to 5 was separated by approximately 12 hours. Blood samples were collected on Day 6 for assessment of plasma levels. Samples were collected by intracardiac puncture or from the vena cava, placed in a K2EDTA tube, and processed to plasma. Samples were stored frozen at −70 to −90° until analyzed. Due to the sacrifice time (48 hours after thioglycollate administration) being dictated by the primary endpoint, samples were collected approximately 14 hours postdose for Groups 2-5 and 26 hours postdose for the remaining groups. No samples were collected for animals 105, 201, 303 and 503.
smiles,measurement,setting,value
"CCCCOCCOc1ccc(-c2ccc3c(c2)/C=C(/C(=O)Nc2ccc([S@@+]([O-])Cc4cncn4CCC)cc2)CCCN3CC(C)C)cc1 [CVC, (S)-8-[4-(2-Butoxyethoxy)phenyl]-1-isobutyl-N-(4-{[(1-propyl-1H-imidazol-5-yl)methyl]sulfinyl}phenyl)-1,2,3,4-tetrahydro-1-benzazocine-5-carboxamide]",Effect on hs-CRP or IL-6 levels,"MCP-1; 10-day study, overall",no effect
same,"MCP-1 Baseline, Mean",MCP-1; CVC 25 mg,20.0 pg/mL
same,"MCP-1 Baseline, Median",MCP-1; CVC 25 mg,16.0 pg/mL
same,"MCP-1 Baseline, Range",MCP-1; CVC 25 mg,7 to 44 pg/mL
same,"MCP-1 Change from Baseline to Day 10, Median",MCP-1; CVC 25 mg,+25.0 pg/mL
same,"MCP-1 Day 10, Mean",MCP-1; CVC 25 mg,75.3 pg/mL
same,"MCP-1 Day 10, Median",MCP-1; CVC 25 mg,39.0 pg/mL
same,"MCP-1 Day 10, Range",MCP-1; CVC 25 mg,10 to 287 pg/mL
same,"MCP-1 Baseline, Mean",MCP-1; CVC 50 mg,12.6 pg/mL
same,"MCP-1 Baseline, Median",MCP-1; CVC 50 mg,6.0 pg/mL
same,"MCP-1 Baseline, Range",MCP-1; CVC 50 mg,5 to 37 pg/mL
same,"MCP-1 Change from Baseline to Day 10, Median",MCP-1; CVC 50 mg,+56.0 pg/mL
same,"MCP-1 Day 10, Mean",MCP-1; CVC 50 mg,101.3 pg/mL
same,"MCP-1 Day 10, Median",MCP-1; CVC 50 mg,65.0 pg/mL
same,"MCP-1 Day 10, Range",MCP-1; CVC 50 mg,21 to 266 pg/mL
same,"MCP-1 Baseline, Mean",MCP-1; CVC 75 mg,26.6 pg/mL
same,"MCP-1 Baseline, Median",MCP-1; CVC 75 mg,8.0 pg/mL
same,"MCP-1 Baseline, Range",MCP-1; CVC 75 mg,5 to 92 pg/mL
same,"MCP-1 Change from Baseline to Day 10, Median",MCP-1; CVC 75 mg,+36.0 pg/mL
same,"MCP-1 Day 10, Mean",MCP-1; CVC 75 mg,59.1 pg/mL
same,"MCP-1 Day 10, Median",MCP-1; CVC 75 mg,43.5 pg/mL
same,"MCP-1 Day 10, Range",MCP-1; CVC 75 mg,20 to 128 pg/mL
same,"MCP-1 Baseline, Mean",MCP-1; CVC 150 mg,31.6 pg/mL
same,"MCP-1 Baseline, Median",MCP-1; CVC 150 mg,19.5 pg/mL
same,"MCP-1 Baseline, Range",MCP-1; CVC 150 mg,8 to 82 pg/mL
same,"MCP-1 Change from Baseline to Day 10, Median",MCP-1; CVC 150 mg,+322.0 pg/mL
same,"MCP-1 Day 10, Mean",MCP-1; CVC 150 mg,372.0 pg/mL
same,"MCP-1 Day 10, Median",MCP-1; CVC 150 mg,368.0 pg/mL
same,"MCP-1 Day 10, Range",MCP-1; CVC 150 mg,79 to 605 pg/mL
same,Circulating blood cell counts,[1],no clear changes
same,Decrease in monocytes in peritoneal lavage vs thioglycollate control (Group 2),[2]; Group 3 (CVC BID),5.7%
same,Decrease in total leukocytes in peritoneal lavage vs thioglycollate control (Group 2),[2]; Group 3 (CVC BID),0.8%
same,Decrease in monocytes in peritoneal lavage vs thioglycollate control (Group 2),[2]; Group 4 (CVC BID),45.2%
same,Decrease in total leukocytes in peritoneal lavage vs thioglycollate control (Group 2),[2]; Group 4 (CVC BID),22.2%
same,Decrease in monocytes in peritoneal lavage vs thioglycollate control (Group 2),[2]; Group 5 (CVC BID),76.5%
same,Decrease in total leukocytes in peritoneal lavage vs thioglycollate control (Group 2),[2]; Group 5 (CVC BID),57.6%
same,Decrease in monocytes in peritoneal lavage vs thioglycollate control (Group 2),[2]; Group 6 (CVC QD),26.0%
same,Decrease in total leukocytes in peritoneal lavage vs thioglycollate control (Group 2),[2]; Group 6 (CVC QD),14.2%
same,"Body weights, Days 1 to 6","[2]; mouse, in vivo",no notable changes in body weights
same,Concentration at which saturation of monocyte CCR2 was reached,CCR2,6 nM
same,Concentration required to reach >80% CCR2 receptor occupancy (average),CCR2,1.8 nM
same,receptor occupancy at 0.006 µM,CCR2; at 6 nM,~98%
same,CCR2 cell-surface expression,CCR2; in the absence of MCP-1,induced CCR2 internalization and decreased cell-surface expression on monocytes
same,Plasma levels at the approximate trough (14 hours postdose),"[3]; BID dosing, Day 6",increased in a dose-related manner
same,concentration at 14.5 h,"[3]; mouse, plasma, mice, Day 6, Group 3, 5 mg/kg/day (BID) oral, ~14 hours postdose (actual 14.5 hours), N=2, 3 of 5 samples below LLOQ (10 ng/mL)",13.5 ng/mL
same,concentration at 15 h,"[3]; mouse, plasma, mice, Day 6, Group 4, 20 mg/kg/day (BID) oral, ~14 hours postdose (actual 15 hours)",81.2 ± 22.8 ng/mL
same,concentration at 15.5 h,"[3]; mouse, plasma, mice, Day 6, Group 5, 100 mg/kg/day (BID) oral, ~14 hours postdose (actual 15.5 hours)",551 ± 253 ng/mL
same,concentration at 28 h,"[3]; mouse, plasma, mice, Day 6, Group 6, 20 mg/kg/day (QD) oral, ~26 hours postdose (actual 28 hours)",25.7 ± 8.1 ng/mL
